# Measured values taken from patent US9567306B2, “Inhibition of macrophage migration inhibitory factor in melanoma and colon cancer” (THE FEINSTEIN INSTITUTE FOR MEDICAL RESEARCH, priority 2014, dated 2017).
# “Also recorded” adds a separate entry of the source.
# Assays:
# B16 tumor = conditions: 80 mg/kg (Yaddanapudi et al.); cited from earlier work
# CT-26 colon tumors = conditions: administered twice per week (He et al.); cited from earlier work
# MIF = target: T1, MIF (Homo sapiens, UniProt P14174); assay: MIF tautomerase inhibition assay (L-dopachrome methyl ester); format: biochemical
# T1 sequence (P14174 2-115 limits assumed): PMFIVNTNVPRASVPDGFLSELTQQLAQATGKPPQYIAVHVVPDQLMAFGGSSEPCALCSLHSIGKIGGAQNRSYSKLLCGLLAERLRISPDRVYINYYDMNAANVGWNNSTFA
# Protocol: MIF tautomerase inhibition assay: MIF tautomerase activity was measured using a UV-Visible spectrophotometer (SHIMADZU, UV1600U). A fresh stock solution of L-dopachrome methyl ester was prepared at 2.4 mM through oxidation of L-3,4-dihydroxyphenylalanine methyl ester with sodium periodate. 1 μL of MIF solution (800-900 μg/mL) and 1 μL of a dimethyl sulfoxide (DMSO) solution with various concentrations of the MIF inhibitor were added into a plastic cuvette (10 mm, 1.5 mL) containing 0.7 mL assay buffer (50 mM potassium phosphate, pH 7.2). Then, activated L-dopachrome methyl ester solution (0.3 mL) was added to the assay buffer mixture. Activity was determined at room temperature and spectrometric measurements were made every 5 sec at λ, =475 nm for total 20 sec, by monitoring the rate of decolorization of L-dopachrome in comparison to a standard solution.
# [1] = Stability in buffer (decarboxylation, mass spectrometry); format: physicochemical; conditions: upon formulation in buffer; by mass spectrometry
# Solubility comparison = format: physicochemical; conditions: relative to ISO-66
structure (smiles),measurement,setting,value
Ic1cc(-c2ccccc2)ncn1 [4-IPP],effect on rate of B16 tumor growth,B16 tumor,significantly slowed the rate of B16 tumor growth
COC(=O)CC1CC(c2ccc(O)cc2)=NO1 (centres unmarked) [ISO-1],inhibition of CT-26 colon tumors,CT-26 colon tumors,25%
O=C(O)CC(=O)CC1CC(c2ccc(O)c(F)c2)=NO1 (centres unmarked) [KF III 53Y],IC50,MIF,1800 nM
same,stability (decarboxylation to ISO-66),[1],spontaneously decarboxylates to form ISO-66; also recorded: undergoes fast decarboxlyation to form ISO-66; also recorded: spontaneously decarboxylated non-enzymatically
same,solubility,Solubility comparison,better solubility than ISO-66
